Reference: patent publication US8993542B2, “Methods of treating viral infections” (priority 2008, dated 2015)

Experiments:
Assay type in all cases: cell-based
[1] = system: HIV; assay: microbe, parasite or virus in culture
[2] = system: HIV-1IIIB; assay: Two-drug combination antiviral assay in CEM cells (CPE), MacSynergy II; conditions: for Antagonism Volume, Result 1 / Antagonism Volume, Result 2 / Antagonism Volume, Result 3 / Mean Antagonism Volume (n = 3) / Mean Synergy Volume (n = 3) / Synergy Volume, Result 1 / Synergy Volume, Result 2 / Synergy Volume, Result 3: in combination with CMX157, CEM-SS cells, 95% confidence; for Interpretation of Antiviral Results (MacSynergy): two-drug combination (with CMX157; control d4T/RBV), CEM-SS cells
[3] = system: HIV-1IIIB; assay: TCID50 determination of drug-treated HIV-1IIIB; set-up: TCID50, XTT Endpoint / TCID50, RT Endpoint / TCID50, P24 Endpoint: unit not given here
[4] = virus treated 15 minutes with 0.039 nM drug
[5] = virus treated 15 minutes with 0.125 nM drug
[6] = virus treated 15 minutes with 0.39 nM drug
[7] = virus treated 15 minutes with 1.25 nM drug
[8] = virus treated 15 minutes with 3.9 nM drug
[9] = virus treated 15 minutes with 12.5 nM drug
[10] = virus treated 15 minutes with 39.1 nM drug
[11] = virus treated 15 minutes with 125 nM drug

SMILES: Nc1ccn([C@@H]2CS[C@H](CO)O2)c(=O)n1 [3TC, (2R, 5S, cis)-4-amino-1-(2-hydroxymethyl-1,3-oxathiolan-5-yl)-(1H)-pyrimidin-2-one]
- IC50 ([1]; Human immunodeficiency virus 1, PANEL 1, WT): 3.24 µM
- IC50 ([1]; Human immunodeficiency virus 1, PANEL 2, WT): 4.44 µM
- IC50 ([1]; Human immunodeficiency virus 1, PANEL 3, 6 TAMs, no 184): 13.9 µM
- IC50 ([1]; Human immunodeficiency virus 1, PANEL 6, 6 TAMs + 184): > 300 µM
- IC50 ([1]; Human immunodeficiency virus 1, PANEL 7, 184V): > 300 µM
- IC50 ([1]; Human immunodeficiency virus 1, PANEL 9, 69ins, no 184): 45.9 µM
- IC50 ([1]; Human immunodeficiency virus 1, PANEL 12, 69ins + 184): > 300 µM
- IC50 ([1]; Human immunodeficiency virus 1, PANEL 14, 65R, no 184): 70.8 µM
- IC50 ([1]; Human immunodeficiency virus 1, PANEL 15, 65R + 184V): > 300 µM
- IC50 ([1]; Human immunodeficiency virus 1, PANEL 17, L74V): 6.98 µM
- IC50 ([1]; Human immunodeficiency virus 1, PANEL 19, L74V + M184V): > 300 µM
- IC50 ([1]; Human immunodeficiency virus 1, PANEL 26, 151M, no 184): 89.6 µM
- IC50 ([1]; Human immunodeficiency virus 1, PANEL 28, 151M + 184): > 300 µM
- IC50 ([1]; Human immunodeficiency virus 1, PANEL 29, L74V − SDM): 6.1 µM
- IC50 ([1]; Human immunodeficiency virus 1, PANEL 30, M184V − SDM): > 300 µM
- IC50 ([1]; Human immunodeficiency virus 1, PANEL 31, K65R − SDM): 43.3 µM
- IC50 ([1]; Human immunodeficiency virus 1, PANEL 33, T215Y): 6.12 µM
- IC50 ([1]; Human immunodeficiency virus 1, PANEL 34, T215Y + M184V): > 300 µM
- IC50 ([1]; Human immunodeficiency virus 1, PANEL 35, M41L + T215Y): 7.55 µM
- IC50 ([1]; Human immunodeficiency virus 1, PANEL 37, M41L + T215Y + M184V): > 300 µM
- IC50 ([1]; Human immunodeficiency virus 1, PANEL 38, M41L + L210W + T215Y): 10.3 µM
- IC50 ([1]; Human immunodeficiency virus 1, PANEL 39, M41L + L210W + T215Y): 5.89 µM
- IC50 ([1]; Human immunodeficiency virus 1, PANEL 40, M41L + L210W + T215Y + M184V): > 300 µM
- IC50 ([1]; Human immunodeficiency virus 1, PANEL 41, M41L + L210W + T215Y + M184V): > 300 µM
- IC50 ([1]; Human immunodeficiency virus 1, PANEL 42, D67N + K70R): 8.07 µM
- IC50 ([1]; Human immunodeficiency virus 1, PANEL 44, D67N + K70R + T215F + K219E + M184V): > 300 µM
- IC50 ([1]; Human immunodeficiency virus 1, PANEL 45, L210W + T215Y): 7.26 µM
- IC50 ([1]; Human immunodeficiency virus 1, PANEL 46, D67N + K70E): 10.8 µM
- IC50 ([1]; Human immunodeficiency virus 1, PANEL 47, D67N + K70E + M184V): > 300 µM
- IC50 ([1]; Human immunodeficiency virus 1, PANEL 48, K70E + M184V): > 300 µM

SMILES: CC(C)CN(C[C@@H](O)[C@H](Cc1ccccc1)NC(=O)O[C@H]1CCOC1)S(=O)(=O)c1ccc(N)cc1 [Amprenavir (APV), amprenavir]
- Antagonism Volume, Result 1 [2]: 0 nM^2 %, μM^2 % or nMμM %
- Antagonism Volume, Result 2 [2]: 0 nM^2 %, μM^2 % or nMμM %
- Antagonism Volume, Result 3 [2]: 0 nM^2 %, μM^2 % or nMμM %
- Mean Antagonism Volume (n = 3) [2]: 0 nM^2 %, μM^2 % or nMμM %
- Mean Synergy Volume (n = 3) [2]: 51.4 nM^2 %, μM^2 % or nMμM %
- Synergy Volume, Result 1 [2]: 104 nM^2 %, μM^2 % or nMμM %
- Synergy Volume, Result 2 [2]: 43.1 nM^2 %, μM^2 % or nMμM %
- Synergy Volume, Result 3 [2]: 7.31 nM^2 %, μM^2 % or nMμM %
- Interpretation of Antiviral Results (MacSynergy) [2]: slightly synergistic

SMILES: COC(=O)N[C@H](C(=O)N[C@@H](Cc1ccccc1)[C@@H](O)CN(Cc1ccc(-c2ccccn2)cc1)NC(=O)[C@@H](NC(=O)OC)C(C)(C)C)C(C)(C)C [Atazanavir (ATV), atazanavir]
- Interpretation of Antiviral Results (MacSynergy) [2]: slightly synergistic

SMILES: CC(C)CN(C[C@@H](O)[C@H](Cc1ccccc1)NC(=O)O[C@H]1CO[C@H]2OCC[C@H]21)S(=O)(=O)c1ccc(N)cc1 [Darunavir (DRV), darunavir]
- Antagonism Volume, Result 1 [2]: 0 nM^2 %, μM^2 % or nMμM %
- Antagonism Volume, Result 2 [2]: −2.31 nM^2 %, μM^2 % or nMμM %
- Antagonism Volume, Result 3 [2]: 0 nM^2 %, μM^2 % or nMμM %
- Mean Antagonism Volume (n = 3) [2]: −0.54 nM^2 %, μM^2 % or nMμM %
- Mean Synergy Volume (n = 3) [2]: 43.2 nM^2 %, μM^2 % or nMμM %
- Synergy Volume, Result 1 [2]: 109 nM^2 %, μM^2 % or nMμM %
- Synergy Volume, Result 2 [2]: 11.5 nM^2 %, μM^2 % or nMμM %
- Synergy Volume, Result 3 [2]: 9.48 nM^2 %, μM^2 % or nMμM %

SMILES: CC(C)Nc1cccnc1N1CCN(C(=O)c2cc3cc(NS(C)(=O)=O)ccc3[nH]2)CC1 [Delavirdine (DLV), delavirdine]
- Antagonism Volume, Result 1 [2]: 0 nM^2 %, μM^2 % or nMμM %
- Antagonism Volume, Result 2 [2]: 0 nM^2 %, μM^2 % or nMμM %
- Antagonism Volume, Result 3 [2]: −2.58 nM^2 %, μM^2 % or nMμM %
- Mean Antagonism Volume (n = 3) [2]: 0 nM^2 %, μM^2 % or nMμM %
- Mean Synergy Volume (n = 3) [2]: 72.9 nM^2 %, μM^2 % or nMμM %
- Synergy Volume, Result 1 [2]: 152 nM^2 %, μM^2 % or nMμM %
- Synergy Volume, Result 2 [2]: 68.4 nM^2 %, μM^2 % or nMμM %
- Synergy Volume, Result 3 [2]: 1.01 nM^2 %, μM^2 % or nMμM %
- Interpretation of Antiviral Results (MacSynergy) [2]: slightly synergistic

SMILES: CCCCCCCCCCCCCCCCOCCCOP(=O)(O)OCCOCn1cnc2c(=O)[nH]c(N)nc21 [HDP-ACV]
- effect on infectious virus ([3]; 15 minutes, 0.039 to 125 nM): no effect
- Fold Decrease From VC, P24 Endpoint [3, 4]: (0) Fold
- Fold Decrease From VC, RT Endpoint [3, 4]: (1.2) Fold
- Fold Decrease From VC, XTT Endpoint [3, 4]: (0) Fold
- TCID50, P24 Endpoint [3, 4]: 30411
- TCID50, RT Endpoint [3, 4]: 132749
- TCID50, XTT Endpoint [3, 4]: 18115
- Fold Decrease From VC, P24 Endpoint [3, 5]: (0) Fold
- Fold Decrease From VC, RT Endpoint [3, 5]: (1.6) Fold
- Fold Decrease From VC, XTT Endpoint [3, 5]: (1.1) Fold
- TCID50, P24 Endpoint [3, 5]: 36277
- TCID50, RT Endpoint [3, 5]: 102336
- TCID50, XTT Endpoint [3, 5]: 16145
- Fold Decrease From VC, P24 Endpoint [3, 6]: (0) Fold
- Fold Decrease From VC, RT Endpoint [3, 6]: (1.1) Fold
- Fold Decrease From VC, XTT Endpoint [3, 6]: (0) Fold
- TCID50, P24 Endpoint [3, 6]: 30411
- TCID50, RT Endpoint [3, 6]: 144887
- TCID50, XTT Endpoint [3, 6]: 20325
- Fold Decrease From VC, P24 Endpoint [3, 7]: (1.4) Fold
- Fold Decrease From VC, RT Endpoint [3, 7]: (1.6) Fold
- Fold Decrease From VC, XTT Endpoint [3, 7]: (1.1) Fold
- TCID50, P24 Endpoint [3, 7]: 21529
- TCID50, RT Endpoint [3, 7]: 102336
- TCID50, XTT Endpoint [3, 7]: 16145
- Fold Decrease From VC, P24 Endpoint [3, 8]: (0) Fold
- Fold Decrease From VC, RT Endpoint [3, 8]: (1.6) Fold
- Fold Decrease From VC, XTT Endpoint [3, 8]: (0) Fold
- TCID50, P24 Endpoint [3, 8]: 30411
- TCID50, RT Endpoint [3, 8]: 102336
- TCID50, XTT Endpoint [3, 8]: 20325
- Fold Decrease From VC, P24 Endpoint [3, 9]: (0) Fold
- Fold Decrease From VC, RT Endpoint [3, 9]: (1.1) Fold
- Fold Decrease From VC, XTT Endpoint [3, 9]: (0) Fold
- TCID50, P24 Endpoint [3, 9]: 36227
- TCID50, RT Endpoint [3, 9]: 144887
- TCID50, XTT Endpoint [3, 9]: 18115
- Fold Decrease From VC, P24 Endpoint [3, 10]: (0) Fold
- Fold Decrease From VC, RT Endpoint [3, 10]: (0) Fold
- Fold Decrease From VC, XTT Endpoint [3, 10]: (1.1) Fold
- TCID50, P24 Endpoint [3, 10]: 30411
- TCID50, RT Endpoint [3, 10]: 204659
- TCID50, XTT Endpoint [3, 10]: 16145
- Fold Decrease From VC, P24 Endpoint [3, 11]: (1.4) Fold
- Fold Decrease From VC, RT Endpoint [3, 11]: (0) Fold
- Fold Decrease From VC, XTT Endpoint [3, 11]: (0) Fold
- TCID50, P24 Endpoint [3, 11]: 21529
- TCID50, RT Endpoint [3, 11]: 162566
- TCID50, XTT Endpoint [3, 11]: 18115
